Here are results for 3 compounds from patent publication US4017596A, “Radiopharmaceutical chelates and method of external imaging” (priority 1975, dated 1977).

Series [1] can be described thus: Biodistribution in mice after intravenous injection (organ counting in scintillation counter). The class given is in vivo. The following applies: 25 g mice; i.v.; 60 minutes.
A short description of series [2]: Imaging in dog before and after plasma loading with bromosulphthalein (BSP), compared with I-131 Rose Bengal.
Series [3] in a line: Scintillation camera imaging and blood level in dogs after intravenous injection. The following applies: dog.
Experimental: One animal was selected for imaging at various time intervals utilizing a scintillation camera. […] Sufficiet cholecystokinin was injected into the dog intravenously to effect contraction of the gall bladder. […] The images were obtained using a gamma scintillation camera (Pho Gamma III) and a parallel hole high sensitivity collimator.

As for `Oc1cccc2cccnc12` [Example 8, technetium-99m chelate of 8-hyroxyquinoline], in series [1], the “injected dose in the intestines” value amounted to 20% and the “injected dose in the liver” value is on record as 40%.

For `Cc1cccc(C)c1NC(=O)CN(CC(=O)O)CC(=O)O` (99mTc complex, metal not drawn) [Example 2], the “effect of BSP loading on plasma clearance or imaging characteristics” value in series [2] (dog, BSP levels of 4-7 mg percent to simulate hyperbilirubinemia) is “did not substantially alter the plasma clearance or imaging characteristics”. Besides, the “image quality compared to I-131 Rose Bengal” value in series [2] (same dog, FIG. 5) is “much better quality”. For the same compound, in series [3] (after i.v. cholecystokinin, FIG. 4 Frame E), the “time to leaving the gall bladder after cholecystokinin injection” value was at most 1 min. In series [3] (i.v. 4 mCi, FIG. 3 Frame A), the “time at which the liver is clearly identified” value worked out at 5 min. In addition, the “uptake by the liver” value in series [3] (i.v. 4 mCi, anterior imaging, FIG. 3) was “rapid uptake by the liver”. For the same compound, the “injected dose remaining in the blood” value in series [3] (i.v. 4 mCi, at 10 minutes) is “Less than 10%”. Moreover, in series [3] (i.v. 4 mCi, images at 25, 40 and 50 minutes), the “clearance from the liver / accumulation in gall bladder” value is “clearance from the liver is demonstrated with progressive accumulation of the radiopharmaceutical in the gall bladder”. For the same compound, in series [3] (i.v. 4 mCi, only "10 minutes" printed, second time missing), the “injected dose remaining in the blood (second value of "10% and 3% ... respectively")” value was under 3%.

In the case of `Oc1cccc2cccnc12` [Example 9, gallium-67 chelate of 8-hydroxyquinoline], in series [1], the “injected dose in the blood” value amounted to 20%, the “injected dose in the intestines” value came to 13% and the “injected dose in the liver” value is listed as 25%.
